Experimental data: the NIST ThermoML archive (doi:10.1021/je800894y)

Conditions: Liquid; for viscosity: Vibrating wire viscometry; for mass density: vibrating-wire apparatus

CC(C)CCCC(C)CCCC(C)CCCCC(C)CCCC(C)CCCC(C)C (centres undefined) [2,6,10,15,19,23-hexamethyltetracosane]
Conditions	mass density [kg/m3]	viscosity [mPa·s]
303.18 K, 1070 kPa	802	22
303.18 K, 5300 kPa	803.5	24.2
303.18 K, 5740 kPa	804.4	24.4
303.18 K, 15580 kPa	806.9	30.3
303.18 K, 25530 kPa	813.9	36.9
303.18 K, 35790 kPa	826.5	44.3
303.18 K, 45770 kPa	825.1	54.6
303.18 K, 55770 kPa	825.9	66.3
348.13 K, 5270 kPa	776.9	5.59
348.13 K, 5290 kPa	777	5.6
348.13 K, 25490 kPa	790.6	7.79
348.13 K, 56280 kPa	807.7	12.3
348.13 K, 85860 kPa	821.2	18.4
348.13 K, 115830 kPa	832.6	26.9
348.13 K, 145930 kPa	844.3	38.7
348.13 K, 175120 kPa	843.2	55.6
398.15 K, 5160 kPa	746.3	2.17
398.15 K, 5230 kPa	746.4	2.17
398.15 K, 25310 kPa	763.3	2.89
398.15 K, 56100 kPa	783.5	4.24
398.15 K, 85890 kPa	799.5	5.88
398.15 K, 115450 kPa	812.6	7.93
398.15 K, 145820 kPa	824.7	10.6
398.15 K, 176100 kPa	835.4	13.8
448.25 K, 5580 kPa	716.3	1.17
448.25 K, 5730 kPa	716.5	1.18
448.25 K, 25470 kPa	736.8	1.54
448.25 K, 55510 kPa	759.9	2.17
448.25 K, 85620 kPa	778.7	2.89
448.25 K, 115510 kPa	793.3	3.76
448.25 K, 145580 kPa	806.4	4.78
448.25 K, 176050 kPa	818.2	5.99
